{"source": "patent US5858975A", "about": "“Oxyntomodulin peptide having cardiotonic activity and insulin release-bromating activity” (Kyowa Hakko Kogyo Co., Ltd., priority 1994, dated 1999)", "key": {"[1]": {"test_system": "plasma insulin concentration", "assay": "Effect of OXM on plasma insulin concentration of anesthetized rat", "type": "in vivo", "conditions": "anesthetized fasted male SD rats, cumulative administration via jugular vein, blood 5 minutes after each dose; FIG. 3", "description": "Test Example 2 Effect of OXM on Plasma Insulin Concentration of Anesthetized Rat\nMale SD rats (370 to 450 g) were bred with no feed for from 15 to 20 hours, and then Na pentobarbital (50 mg/kg) was intra-abdominally administered thereto. A blood-collecting cannula was inserted into the carotid artery of each rat. A dosed cannula was inserted into the jugular vein of each rat. About 600 μl of blood was collected from each rat before the administration of a test chemical, and 5 minutes after each administration of a varying dose of the said test chemical. OXM obtained in Example 2 was added to physiological saline solution to adjust concentration of 1 mg/ml. The said OXM solution was diluted with a physiological saline solution, the thus-diluted solution was accumulatively administered to each rat. The dose of the solution was 1 ml/kg. The collected blood was centrifuged, and its insulin concentration was measured according to the Insulin-EIA Test (Wako Pure Chemicals)."}, "eel atrium": {"test_system": "eel atrium", "assay": "Effect of OXM in eel atrium (isolated atrium, tension transducer)", "conditions": "isolated eel atrium in Ringer's solution, varying OXM concentration", "description": "Test Example 1 Effect of OXM in Eel Atrium\nAn atrium was taken out of an eel, and one end of said atrium was fixed to the bottom of syringe filled with 1.5 ml of Ringer's solution in which was introduced a mixed gas of oxygen and carbon dioxide (95:5), while the other end thereof was connected to a tension transducer (NEC) via a silk thread. 15 μl of an aqueous solution of OXM as diluted with distilled water to have a varying concentration was added to said Ringer's solution, whereupon the tension to be generated by the atrial contraction was measured through the tension transducer. OXM used herein was the product as produced in Example 2. During this measurement, the atrial rate was also counted."}}}
{"substance": "H-HSQGTFTNDYSKYLETRRAQDFVQWLMNSKRSGGPT-OH [OXM]", "values": [{"measurement": "dose at which plasma insulin concentration is increased", "setting": "[1]", "value": "≥ 0.01", "unit": "mg/kg"}, {"measurement": "atrial systole (atrial tension)", "setting": "eel atrium; FIG. 1", "value": "dose-dependently increases"}, {"measurement": "atrial rate", "setting": "eel atrium; FIG. 2", "value": "dose-dependently increases"}]}
